Assay results from patent publication US12145927B2 (BRISTOL-MYERS SQUIBB COMPANY, priority 2018, dated 2024).

Key:
human IDO1 = biological target: T1, human IDO1 (Homo sapiens, UniProt P14902); assay: IDO inhibition assay in human IDO1/HEK293 cells (IDO1 HEK Human); assay type: cell-based; conditions: HEK293 cells stably expressing human IDO1; 20 hours incubation; absorbance at 490 nm after Ehrlich reagent
T1 construct: expressed in transfected cells
Summary of the method: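 HEK293 clones stably expressing human IDO1 (10,000 cells/well, phenol red-free RPMI, 10% FBS) were treated with compound for 20 hours at 37° C. After 0.2% TCA and 30 min at 50° C., kynurenine was read with Ehrlich reagent at 490 nm. IC50 was normalised to DMSO (0%) and 500 nM reference standard (100%).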

[1] = biological target: T2, indoleamine 2,3-dioxygenase (IDO) (Homo sapiens, UniProt P14902); assay: HeLa cell-based indoleamine 2,3-dioxygenase (IDO) assay (IDO1 HeLa); conditions: HeLa cells, IFNγ 25 ng/mL, 48 hour incubation; kynurenine by absorbance at 480 nm
T2 construct: replaced with media containing IFNγ (#285-IF/CF, R&D Systems) at a final concentration of 25 ng/mL; endogenous in cells; host or cells: HeLa (ATCC CCL-2), IFNγ-stimulated
Method: Assessment of inhibitor activity in HeLa cell-based indoleamine 2,3-dioxygenase (IDO) assay:
HeLa (ATCC® CCL-2) cells were obtained from the ATCC® and cultured in Dulbecco's Modified Eagle Medium supplemented with 4.5 g/L glucose, […] (#10-013-CV, Corning), 2 mM L-alanyl-L-glutamine dipeptide (#35050-061, Gibco), 100U/mL penicillin, 100 μg/mL streptomycin (#SV30010, HyClone) and 10% fetal bovine serum (#SH30071.03 HyClone). Cells were maintained in a humidified incubator at 37° C. in 5% CO2.
IDO activity was assessed as a function of kynurenine production as follows: HeLa cells were seeded in a 96-well culture plate at a density of 5,000 cells/well and allowed to equilibrate overnight. After 24 hours, the media was aspirated and replaced with media containing IFNγ (#285-IF/CF, R&D Systems) at a final concentration of 25 ng/mL. A serial dilution of each test compound was added to the cells in a total volume of 200 μL of culture medium. After a further 48 hour incubation, 170 μL of supernatant was transferred from each well to a fresh 96-well plate. 12.1 μL of 6.1N trichloroacetic acid (#T0699, Sigma-Aldrich) was added to each well and mixed, followed by incubation at 65° C. for 20 minutes to hydrolyze N-formylkynurenine, the product of indoleamine 2,3-dioxygenase, to kynurenine. The reaction mixture was then centrifuged for 10 mins at 500×g to sediment the precipitate. 100 μL of the supernatant was transferred from each well to a fresh 96-well plate. 100 μl of 2% (w/v) p-dimethylaminobenzaldehyde (#15647-7, Sigma-Aldrich) in acetic acid (#A6283, Sigma-Aldrich) was added to each well mixed and incubated at RT for 20 mins. Kynurenine concentrations were determined by measuring absorbance at 480 nm and calibrating against an L-kynurenine (#K8625, Sigma-Aldrich) standard curve using a SPECTRAMAX® M2e microplate reader (Molecular Devices). The percentage activity at each inhibitor concentration was determined and IC50 values assessed using nonlinear regression.

T2 sequence (P14902 whole entry): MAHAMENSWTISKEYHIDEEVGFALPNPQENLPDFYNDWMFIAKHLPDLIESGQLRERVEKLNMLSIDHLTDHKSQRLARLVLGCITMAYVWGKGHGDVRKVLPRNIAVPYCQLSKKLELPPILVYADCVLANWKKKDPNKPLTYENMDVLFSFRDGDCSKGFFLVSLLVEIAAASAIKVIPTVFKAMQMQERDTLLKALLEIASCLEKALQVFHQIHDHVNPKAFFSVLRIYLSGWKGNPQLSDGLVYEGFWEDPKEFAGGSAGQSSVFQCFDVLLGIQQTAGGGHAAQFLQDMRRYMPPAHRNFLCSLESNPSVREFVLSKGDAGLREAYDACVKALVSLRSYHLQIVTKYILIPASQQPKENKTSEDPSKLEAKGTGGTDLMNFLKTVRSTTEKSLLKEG
T1 sequence (P14902 whole entry): as above

Structure (SMILES) | IC50 (human IDO1) [nM] | IC50 [1] [nM]
Cc1ccc(NC(=O)Nc2cc(-c3ccccc3-c3noc(=O)[nH]3)cc3c2OCCCC3c2ccccc2)cc1 (single isomer, unassigned) [Example 67, 1-(7-(2-(5-oxo-4,5-dihydro-1,2,4-oxadiazol-3-yl)phenyl)-5-phenyl-2,3,4,5-tetrahydrobenzo[b]oxepin-9-yl)-3-(p-tolyl)urea] | 1.1 | 1
Cc1ccc(NC(=O)Nc2cc(-c3ccccc3-c3nnn[nH]3)cc3c2OCCCC3C2CC2)cc1 (single isomer, unassigned) [36 (En. 2), 1-(7-(2-(1H-tetrazol-5-yl)phenyl)-5-cyclopropyl-2,3,4,5-tetrahydrobenzo[b]oxepin-9-yl)-3-(p-tolyl)urea] | 2.4 | 3.6
Cc1ccc(NC(=O)Nc2cc(-c3ccccc3-c3nnn[nH]3)cc3c2OCCCC3C(C)C)cc1 (single isomer, unassigned) [24 (En. 1), 1-(7-(2-(1H-tetrazol-5-yl)phenyl)-5-isopropyl-2,3,4,5-tetrahydrobenzo[b]oxepin-9-yl)-3-(p-tolyl)urea] | 0.98 | 28.9
COCC(CC(=O)O)c1cc(Nc2ccc(C#N)cc2)c2c(c1)C(C1CC1)CCCO2 (single isomer, unassigned) [131 (dia. 2), 3-(9-(4-Cyanophenylamino)-5-cyclopropyl-2,3,4,5-tetrahydrobenzo[b]oxepin-7-yl)-4-methoxybutanoic acid] | 2 | 2.1
Cc1ccc(NC(=O)Nc2cc(-c3ccccc3-c3nnn[nH]3)cc3c2OCCCC3C2CC2)cc1 (single isomer, unassigned) [36 (En. 1), 1-(7-(2-(1H-tetrazol-5-yl)phenyl)-5-cyclopropyl-2,3,4,5-tetrahydrobenzo[b]oxepin-9-yl)-3-(p-tolyl)urea] | 10.4 | 14.9
Cc1ccc(-c2nnn[nH]2)c(-c2cc(Nc3ccc4nc(C)sc4c3)c3c(c2)C(c2ccccc2)CCCO3)c1 (single isomer, unassigned) [Example 74, 2-methyl-N-(7-(5-methyl-2-(1H-tetrazol-5-yl)phenyl)-5-phenyl-2,3,4,5-tetrahydrobenzo[b]oxepin-9-yl)benzo[d]thiazol-6-amine] | 7.7 | 5.1
Fc1cc(Nc2cc(-c3ccccc3-c3nnn[nH]3)cc3c2OCCCC3c2ccccc2)ccc1Cl (single isomer, unassigned) [Example 72, 7-(2-(1H-tetrazol-5-yl)phenyl)-N-(4-chloro-3-fluorophenyl)-5-phenyl-2,3,4,5-tetrahydrobenzo[b]oxepin-9-amine] | – | 24.2
Cc1ccc(CC(=O)Nc2cc(-c3ccccc3-c3nnn[nH]3)cc3c2OCCCC3c2ccccc2)cc1 (single isomer, unassigned) [Example 2-3, N-(7-(2-(1H-tetrazol-5-yl)phenyl)-5-phenyl-2,3,4,5-tetrahydrobenzo[b]oxepin-9-yl)-2-(p-tolyl)acetamide] | 21.4 | –
Cc1ccc(NC(=O)Nc2cc(-c3ccccc3-c3nnn[nH]3)cc3c2OCCCC3C(C)C)cc1 (single isomer, unassigned) [24 (En. 2), 1-(7-(2-(1H-tetrazol-5-yl)phenyl)-5-isopropyl-2,3,4,5-tetrahydrobenzo[b]oxepin-9-yl)-3-(p-tolyl)urea] | 6.3 | 161
O=C(Nc1ccccc1F)Nc1cc(-c2ccccc2-c2nnn[nH]2)cc2c1OCCCC2C1CC1 (single isomer, unassigned) [38 (En. 2), 1-(7-(2-(1H-tetrazol-5-yl)phenyl)-5-cyclopropyl-2,3,4,5-tetrahydrobenzo[b]oxepin-9-yl)-3-(2-fluorophenyl)urea] | 19.4 | –
CC(=O)NS(=O)(=O)c1ccccc1-c1cc(NC(=O)Nc2ccc(C)cc2)c2c(c1)C(c1ccccc1)CCCO2 (single isomer, unassigned) [59 (En. 2), N-((2-(5-phenyl-9-(3-(p-tolyl)ureido)-2,3,4,5-tetrahydrobenzo[b]oxepin-7-yl)phenyl)sulfonyl)acetamide] | 280 | –

Now from value to compound:

IC50 (human IDO1) [nM] | IC50 [1] [nM] | Structure (SMILES)
– | 30.1 | O=C(Nc1ccc(Br)cc1)Nc1cc(-c2ccccc2-c2nnn[nH]2)cc2c1OCC=CC2c1ccccc1 (racemic) [Example 106, (+/−)-1-(7-(2-(1H-tetrazol-5-yl)phenyl)-5-phenyl-2,5-dihydrobenzo[b]oxepin-9-yl)-3-(4-bromophenyl)urea]
50.2 | 24.7 | Cc1ccc(NC(=O)Nc2cc(-c3ccccc3-c3nnn[nH]3)cc3c2OCC(F)(F)CC3c2ccccc2)cc1 (racemic) [Example 110, (+/−) 1-(7-(2-(1H-tetrazol-5-yl)phenyl)-3,3-difluoro-5-phenyl-2,3,4,5-tetrahydrobenzo[b]oxepin-9-yl)-3-(p-tolyl)urea]
– | 5.9 | Cc1ccc(NC(=O)Nc2cc(-c3ccccc3-c3nnn[nH]3)cc3c2OC[C@@H](C)C[C@H]3c2ccccc2)cc1 (racemic) [Example 109, (+/−)-1-((cis)-7-(2-(1H-tetrazol-5-yl)phenyl)-3-methyl-5-phenyl-2,3,4,5-tetrahydrobenzo[b]oxepin-9-yl)-3-(p-tolyl)urea]
– | 54.7 | O=C(Nc1ccc(Cl)cc1F)Nc1cc(-c2ccccc2-c2nnn[nH]2)cc2c1OCC=CC2c1ccccc1 (racemic) [Example 105, (+/−)-1-(7-(2-(1H-tetrazol-5-yl)phenyl)-5-phenyl-2,5-dihydrobenzo[b]oxepin-9-yl)-3-(4-chloro-2-fluorophenyl)urea]
– | 164 | Cc1ccc(NC(=O)Nc2cc(-c3cc(F)ccc3C(=O)O)cc3c2OCCCC3c2ccccc2)cc1 (racemic) [Example 108, (+/−)-4-fluoro-2-(5-phenyl-9-(3-(p-tolyl)ureido)-2,3,4,5-tetrahydrobenzo[b]oxepin-7-yl)benzoic acid]
– | 10.9 | Cc1ccc(NC(=O)Nc2cc(-c3ccccc3-c3nn[nH]n3)cc3c2OCC=CC3c2ccccc2)cc1 (racemic) [Example 87, (+/−)-1-(7-(2-(1H-tetrazol-5-yl)phenyl)-5-phenyl-2,5-dihydrobenzo[b]oxepin-9-yl)-3-(p-tolyl)urea]
– | 14.5 | CCc1ccc(NC(=O)Nc2cc(-c3ccccc3-c3nnn[nH]3)cc3c2OCC=CC3CCC(F)(F)F)cc1 (racemic) [Example 107, (+/−)-1-(7-(2-(1H-tetrazol-5-yl)phenyl)-5-(3,3,3-trifluoropropyl)-2,5-dihydrobenzo[b]oxepin-9-yl)-3-(4-ethylphenyl)urea]
– | 7.2 | CC1=CC(c2ccccc2)c2cc(-c3ccccc3-c3nnn[nH]3)cc(NC(=O)Nc3ccc(C)cc3)c2OC1 (racemic) [Example 92, (+/−)-1-(7-(2-(1H-tetrazol-5-yl)phenyl)-3-methyl-5-phenyl-2,5-dihydrobenzo[b]oxepin-9-yl)-3-(p-tolyl)urea]
40 | – | C=C[C@H]1Oc2c(NC(=O)Nc3ccc(C)cc3)cc(-c3ccccc3-c3nnn[nH]3)cc2[C@@H]1CCC(F)(F)F (single isomer, unassigned) [Example 130, 1-((trans)-5-(2-(1H-tetrazol-5-yl)phenyl)-3-(3,3,3-trifluoropropyl)-2-vinyl-2,3-dihydrobenzofuran-7-yl)-3-(p-tolyl)urea]
13 | – | C=C[C@@H]1Oc2c(NC(=O)Nc3ccc(C)cc3)cc(-c3ccccc3-c3nnn[nH]3)cc2[C@H]1c1ccccc1 (single isomer, unassigned) [Example 89, 1-((trans)-5-(2-(1H-tetrazol-5-yl)phenyl)-3-phenyl-2-vinyl-2,3-dihydrobenzofuran-7-yl)-3-(p-tolyl)urea]
1300 | – | Cc1ccc(NC(=O)Nc2cc(-c3cc(F)ccc3C(=O)O)cc3c2O[C@@H](C)[C@H]3c2ccccc2)cc1 (relative stereo) [Example 114, rel-4-fluoro-2-((2R,3R)-2-methyl-3-phenyl-7-(3-(p-tolyl)ureido)-2,3-dihydrobenzofuran-5-yl)benzoic acid]
8.5 | – | Cc1ccc(-c2nnn[nH]2)c(-c2cc(Nc3ccc(Cl)cc3)c3c(c2)C(c2ccccc2)CCCO3)c1 (single isomer, unassigned) [Example 78, N-(4-chlorophenyl)-7-(5-methyl-2-(1H-tetrazol-5-yl)phenyl)-5-phenyl-2,3,4,5-tetrahydrobenzo[b]oxepin-9-amine]
